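Cells were grown in 96-well plates and exposed to each compound for 48 hours at five concentrations; endpoints were interpolated linearly between bracketing concentrations, or set to the highest concentration if not reached. GI50: concentration for 50% inhibition of growth.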 Active and inactive are the calls of the source. Cut-off read from the data, not from the text of the source: active = GI50 up to about 1.1 µM and inactive = higher.
Tests used:
Test in all cases: DTP human tumour cell line panel, 48 h
[1] = system: UACC-257
[2] = system: TK-10
[3] = system: SK-MEL-5
[4] = system: NCI-H23
[5] = system: A498
[6] = system: LOX IMVI
[7] = system: SF-268
[8] = system: 786-0
[9] = system: SN12C
[10] = system: OVCAR-8
[11] = system: NCI/ADR-RES
[12] = system: SNB-19
[13] = system: NCI-H226
[14] = system: HCC 2998
[15] = system: BT-549
[16] = system: HL-60
[17] = system: NCI-H522
[18] = system: EKVX
[19] = system: NCI-H460

SMILES	GI50 [1]	GI50 [2]	GI50 [3]	GI50 [4]	GI50 [5]	GI50 [6]	GI50 [7]	GI50 [8]	GI50 [9]	GI50 [10]	GI50 [11]	GI50 [12]	GI50 [13]	GI50 [14]	GI50 [15]	GI50 [16]	GI50 [17]	GI50 [18]	GI50 [19]
Nc1ccc(-c2nc3ccccc3s2)cc1Cl	> 100 µM (inactive)	< 0.01 µM (active)	> 87.3 µM (inactive)	69.3 µM (inactive)	0.223 µM (active)	46.8 µM (inactive)	67 µM (inactive)	74 µM (inactive)	> 100 µM (inactive)	> 100 µM (inactive)	> 100 µM (inactive)	> 70.8 µM (inactive)	0.571 µM (active)	> 64.3 µM (inactive)	> 66.4 µM (inactive)	> 92.3 µM (inactive)	98.6 µM (inactive)	25.2 µM (inactive)	
C[Si](C)(C)C#CCO[Si](C)(C)C	> 100 µM (inactive)	> 100 µM (inactive)	> 100 µM (inactive)	68.7 µM (inactive)	> 100 µM (inactive)	7.03 µM (inactive)	34.2 µM (inactive)	32.7 µM (inactive)	> 100 µM (inactive)	36.3 µM (inactive)	> 100 µM (inactive)	> 100 µM (inactive)	> 100 µM (inactive)	> 100 µM (inactive)	39.1 µM (inactive)	31.5 µM (inactive)	15.9 µM (inactive)	97.9 µM (inactive)	> 100 µM (inactive)
O=C1O[C@]2(c3ccccc3)C(c3ccccc3)=C[C@]2(C(=O)c2ccccc2)C1=O	30.3 µM (inactive)	27 µM (inactive)	31.8 µM (inactive)	33.7 µM (inactive)	35.5 µM (inactive)	28.9 µM (inactive)	38 µM (inactive)	26.2 µM (inactive)	33.4 µM (inactive)	29.8 µM (inactive)	31.6 µM (inactive)	36.6 µM (inactive)	29.9 µM (inactive)	20.3 µM (inactive)	36.1 µM (inactive)	5.98 µM (inactive)	21.1 µM (inactive)	34 µM (inactive)	27.1 µM (inactive)
COC(=O)C1=C(C)NC2=C(C(=O)c3ccccc32)C1c1cn(-c2ccccc2)nc1-c1ccccc1 (stereo not drawn)	> 85.3 µM (inactive)	> 100 µM (inactive)	> 100 µM (inactive)	20.7 µM (inactive)	> 65.9 µM (inactive)	37.4 µM (inactive)	> 45.6 µM (inactive)	> 87.1 µM (inactive)	> 100 µM (inactive)	> 100 µM (inactive)	70.6 µM (inactive)	> 48.1 µM (inactive)	74.1 µM (inactive)	13.6 µM (inactive)	63.7 µM (inactive)	23.2 µM (inactive)	> 53.5 µM (inactive)	> 42.9 µM (inactive)	
C=C(C(=O)O)[C@@H]1C[C@@H]2O[C@H]1CC(C)=CCC/C(C)=C/CC[C@@]2(C)O	> 100 µM (inactive)	> 100 µM (inactive)	> 100 µM (inactive)		> 100 µM (inactive)	> 100 µM (inactive)	> 100 µM (inactive)	> 100 µM (inactive)	> 100 µM (inactive)	> 100 µM (inactive)	> 100 µM (inactive)	> 100 µM (inactive)	> 100 µM (inactive)	> 100 µM (inactive)	> 100 µM (inactive)	> 100 µM (inactive)	> 100 µM (inactive)	> 100 µM (inactive)	> 100 µM (inactive)
CCCCCc1cc2cc3c(c(O)c2c(=O)[nH]1)C1(CC3)C(=O)c2c(O)c3c(c(O)c2C1=O)C(=O)C(OC)=CC3=O (stereo not drawn)	0.444 µM (active)		0.64 µM (active)	0.701 µM (active)	2.31 µM (inactive)	0.662 µM (active)	0.946 µM (active)	0.7 µM (active)	0.877 µM (active)	0.622 µM (active)	1.17 µM (inactive)	1.08 µM (active)	1.45 µM (inactive)	1.05 µM (active)	1.08 µM (active)	0.421 µM (active)	0.359 µM (active)	0.916 µM (active)	0.863 µM (active)
COc1ccc2cc(-c3nc(N)nc(N4N=C(C)CC4(C)C)n3)c(=N)oc2c1	28.9 µM (inactive)	32.6 µM (inactive)	16.2 µM (inactive)	16.5 µM (inactive)	32.3 µM (inactive)		16.9 µM (inactive)	17.9 µM (inactive)	20.2 µM (inactive)	23 µM (inactive)	31.4 µM (inactive)	19.3 µM (inactive)	15.3 µM (inactive)	17.9 µM (inactive)	18.6 µM (inactive)	19.9 µM (inactive)	13.5 µM (inactive)	26.2 µM (inactive)	17.4 µM (inactive)
O=c1cnc2cc3ccccc3cc2[nH]1	> 100 µM (inactive)	> 100 µM (inactive)	> 100 µM (inactive)	> 100 µM (inactive)	> 100 µM (inactive)	> 100 µM (inactive)	> 100 µM (inactive)	> 100 µM (inactive)	> 100 µM (inactive)	> 100 µM (inactive)	> 100 µM (inactive)	71.6 µM (inactive)	> 100 µM (inactive)	> 100 µM (inactive)	> 100 µM (inactive)	> 100 µM (inactive)	> 100 µM (inactive)	1.57 µM (inactive)	> 100 µM (inactive)
COc1ccc2nc3c(nc2c1)C(C)(C)C=C3c1ccc(Br)cc1	> 100 µM (inactive)	> 100 µM (inactive)	> 100 µM (inactive)		> 100 µM (inactive)	> 100 µM (inactive)	> 100 µM (inactive)	> 100 µM (inactive)	> 100 µM (inactive)	> 100 µM (inactive)	> 100 µM (inactive)	> 100 µM (inactive)	> 100 µM (inactive)	> 100 µM (inactive)	> 100 µM (inactive)	> 100 µM (inactive)	> 100 µM (inactive)	> 100 µM (inactive)	> 100 µM (inactive)
CC(=O)/N=C1/N(/C=C2\C(=O)Oc3ccccc3C2=O)C(=O)/C(=C/c2cccc(Cl)c2Cl)N1C	39 µM (inactive)		12.9 µM (inactive)	23.9 µM (inactive)	4.68 µM (inactive)	24.6 µM (inactive)	20.4 µM (inactive)	34.3 µM (inactive)	42.6 µM (inactive)	19.7 µM (inactive)	22.5 µM (inactive)		24 µM (inactive)	16.7 µM (inactive)	20.4 µM (inactive)	3.99 µM (inactive)	18.2 µM (inactive)	28.9 µM (inactive)	
Cn1ccnc1CCc1ccc(F)cc1F		> 100 µM (inactive)	> 100 µM (inactive)	> 100 µM (inactive)	> 100 µM (inactive)	> 100 µM (inactive)	> 100 µM (inactive)	> 100 µM (inactive)	> 100 µM (inactive)	> 100 µM (inactive)	> 100 µM (inactive)	> 100 µM (inactive)	> 100 µM (inactive)	> 100 µM (inactive)	> 100 µM (inactive)	> 100 µM (inactive)	> 100 µM (inactive)	> 100 µM (inactive)	> 100 µM (inactive)
O=c1[nH]nc(-c2cccc([N+](=O)[O-])c2)[nH]1	> 100 µM (inactive)	> 100 µM (inactive)		> 100 µM (inactive)	> 100 µM (inactive)	> 100 µM (inactive)	> 100 µM (inactive)	> 100 µM (inactive)	> 100 µM (inactive)	> 100 µM (inactive)	> 100 µM (inactive)	> 100 µM (inactive)	> 100 µM (inactive)	> 100 µM (inactive)	> 100 µM (inactive)	> 100 µM (inactive)	> 100 µM (inactive)	8.34 µM (inactive)	> 100 µM (inactive)
Cc1ccc(S(=O)(=O)NC(=O)NCC(=O)NCC(=O)O)cc1	> 100 µM (inactive)	> 100 µM (inactive)	> 100 µM (inactive)	> 100 µM (inactive)	> 100 µM (inactive)	> 100 µM (inactive)	> 100 µM (inactive)	> 100 µM (inactive)		> 100 µM (inactive)	> 100 µM (inactive)	> 100 µM (inactive)	> 100 µM (inactive)	> 100 µM (inactive)	> 100 µM (inactive)	> 100 µM (inactive)	> 100 µM (inactive)	> 100 µM (inactive)	> 100 µM (inactive)
CC(C)C(C/C=C1/CC(CO)(COC(=O)CC(C(C)C)C(C)C)OC1=O)C(C)C (stereo not drawn)	16 µM (inactive)	2.08 µM (inactive)	10.4 µM (inactive)	14.7 µM (inactive)	2.98 µM (inactive)	5.27 µM (inactive)	10.6 µM (inactive)	5.61 µM (inactive)	14.2 µM (inactive)	16.1 µM (inactive)	16 µM (inactive)	12.5 µM (inactive)	8.93 µM (inactive)	2.89 µM (inactive)	15 µM (inactive)	0.0931 µM (active)	12.9 µM (inactive)	1.79 µM (inactive)	2.44 µM (inactive)
CC1(C)O[C@@H]2COC(=O)[C@@H]2O1	> 100 µM (inactive)	> 100 µM (inactive)	> 100 µM (inactive)	> 100 µM (inactive)	> 100 µM (inactive)	> 100 µM (inactive)	> 100 µM (inactive)	> 100 µM (inactive)	> 100 µM (inactive)	> 100 µM (inactive)	> 100 µM (inactive)	> 100 µM (inactive)	> 100 µM (inactive)	> 100 µM (inactive)	> 100 µM (inactive)	> 100 µM (inactive)	> 100 µM (inactive)	> 100 µM (inactive)	> 100 µM (inactive)
